The text below walks through data of publication PMC11022729 (Advanced Science, 2024).

One series concerns mice. The series can be described thus: Chloroquine-induced itch behavior, wildtype mice. It is filed as in vivo, mouse. On the procedure:
(§1) We then assessed the antipruritic efficacy of compound 6 in a model of histamine‐independent itching induced by the antimalarial drug chloroquine.
(§2) Three to four days before the day of the experiment, the fur on the dorsolateral aspect of the neck was shaved under brief isoflurane anesthesia. On the testing day, the mice were habituated to a Plexiglas cylinder (30 cm in diameter) for 30 min. Compound 6 hydrochloride or vehicle were i.p. or p.o. administered, and 15 min later, the pruritogens chloroquine (200 µg), SLIGRL (100 µg), β‐alanine (100 µg), or histamine (800 µg), all dissolved in 0.9% saline (20 µL), were injected subcutaneously into the nape of the neck.^[ [29] ^] Number of scratching bouts directed toward the nape of the neck was assessed over 30 min by videotaping. In experiments with the Slack inhibitor, compound 31 (ref. [27]; 30 mg kg^−1 in 0.9% NaCl with 2% DMSO and 10% Kolliphor) was i.p. administered 5 min prior to compound 6.

Series [1] can be described thus: Metabolic stability assay in rat liver microsomes. It is filed as in vitro ADME. Particulars: for metabolic stability: 10 µM, 15, 30 and 60 min. On the procedure: We next assessed the metabolic stability of these compounds (10 µM) in rat liver microsomes (Figure 2A). […] Therefore, we assumed that the occupation of metabolically labile sites at the aromatic core and the reduction in electron density at the oxidizable nitrogen atom of the piperazine ring might increase metabolic stability. Indeed, both the introduction of fluorine at R^2 and the introduction of an electron‐withdrawing carboxylic acid linker at R^3 improved metabolic stability. The substitution of chlorine with a trifluoromethyl group at R^1 was also beneficial. In contrast, homopiperazine and hydroxy linkers were metabolically labile.
The solubilized test compound (5 µL, final concentration 10 µM) was preincubated at 37 °C in 432 µL phosphate buffer (0.1 M, pH 7.4) together with 50 µL NADPH regenerating system (30 mM glucose‐6‐phosphate, 4 U mL^−1 glucose 6‐phosphate dehydrogenase, 10 mM NADP, and 30 mM MgCl2). After 5 min, the reaction started upon the addition of 13 µL of microsome mix from the liver of Sprague‐Dawley rats (Invitrogen; 20 mg protein per mL in 0.1 M phosphate buffer) in a shaking water bath at 37 °C. The reaction was stopped by adding 500 µL ice‐cold methanol at 0, 15, 30, and 60 min. The samples were centrifuged at 5000 × g for 5 min at 4 °C and the test compound was quantified from the supernatants by HPLC; the composition of the mobile phase was adapted to the test compound in a range of MeOH 40−90% and water (0.1% formic acid) 10−60%. Flow rate: 1 mL min^−1; stationary phase: Purospher STAR, RP18, 5 µm, 125 × 4; precolumn: Purospher STAR, RP18, 5 µm, 4 × 4; detection wavelength: 254 and 280 nm; injection volume: 50 µL. Control samples were used to evaluate the stability of the test compounds in the reaction mixture. The first control was without NADPH, which is needed for the enzymatic activity of the microsomes, the second control was with inactivated microsomes (incubated for 20 min at 90 °C), and the third control was without the test compound (to determine the baseline). The amounts of test compounds were quantified using an external calibration curve.

The next series concerns the target T1, human D3 receptor (Homo sapiens, UniProt P35462).
T1 construct: expressed in transfected cells; host or cells: CHO
Description: [3H]-spiperone competition binding assay, D3. As to conditions: for Ki: mean [CI 95%]. As to the method: CHO cells stably expressing human dopamine D2short (D2R) and D3 receptor (D3R) were washed and harvested using PBS. […] The cell membrane homogenate was centrifuged (20 000 × g, 20 min, 4 °C), and the resulting cell pellet was resuspended in the binding buffer. Crude membrane extracts were kept at −80 °C until use. Before starting the experiments, cell membranes were thawed, homogenized by sonication (3 × 10 s), and stored in an ice‐cold binding buffer. […] Assays were performed at least in triplicate with appropriate concentrations ranging from 0.01 nM to 100 µM of the test compound. Non‐specific binding was determined using 10 µM haloperidol. By filtering through GF/B filters pretreated with 0.3% (m/v) polyethyleneimine, the bound radioligand was separated from free radioligand using a cell harvester. Radioactivity was measured using liquid scintillation counting. Data were evaluated using the GraphPad Prism 9 software (San Diego, CA, USA) with a nonlinear regression fit.

For another series, the system named is Slack−/− mice. Description: Chloroquine-induced itch behavior, Slack knockout mice. Format: in vivo, mouse. As to the method:
as §1, §2

The nature of series [2]: Pharmacokinetics in mice (plasma and brain levels, LC-MS). Format: in vivo. As to conditions: mouse. As to the method: To prepare for in vivo studies, we investigated the pharmacokinetic properties of compound 6. […] For comparison, we determined the plasma and brain loxapine levels. […] Collectively, the pharmacological and pharmacokinetic profiles of compound 6 make it an excellent molecule for in vivo pharmacodynamic studies.
Pharmacokinetic experiments were performed by Bienta (Enamine Biology Services, Kiev, Ukraine). Study design, animal selection, handling, and treatment were performed in accordance with the Enamine PK study protocols and the Institutional Animal Care and Use Guidelines. Male C57BL/6J mice (11–16 weeks old) were used in this study. The animals were fasted for 4 h before dosing. […] Each timepoint treatment group included three animals, and a control group was employed, including one animal.
Before collecting blood and brain tissue, the mice were anesthetized with 2,2,2‐tribromoethanol (150 mg kg^−1 i.p.). In studies with i.p. compound administration, the chest was opened, an incision was made in the right atrium, whole blood was collected into tubes containing K2EDTA, and the animals were perfused with saline (10 mL) prior to the excision of the brain tissue (left lobe). In studies with p.o. or i.v. delivery of compounds, blood was collected from the orbital sinus in microtainers containing K3EDTA, the animals were sacrificed by cervical dislocation, and the brain tissue (left lobe) was excised. After collection, the blood samples were centrifuged for 10 min at 3000 rpm, and the brain samples were weighed. All samples were immediately processed, flash‐frozen, and stored at −70 °C until subsequent analysis.
The compound levels in the plasma and brain samples were determined using liquid chromatography–tandem mass spectrometry (LC‐MS/MS) by a staff member from Bienta. Pharmacokinetic data analysis was performed using non‐compartmental, bolus injection, or extravascular input analysis models with WinNonlin 5.2 (PharSight). Data below the lower limit of quantitation were presented as missing data to improve the validity of the half‐life calculations. For each treatment condition, the final concentration values obtained at each time point were analyzed for outliers using Grubbs' test, with the level of significance set at p < 0.05. The sum of the AUC0‐inf (area under the concentration‐time curve from zero to time infinity) was used to estimate the ratiobrain/plasma (concentration ratio of the compound in the brain and plasma).

Setting [3] is: male, C57BL/6J, ip, I.P. 10 mg/kg, brain.
Setting [4] is: male, C57BL/6J, ip, I.P. 10 mg/kg, plasma.
Where [5] appears, read: male, C57BL/6J, iv, I.V. 1 mg/kg, brain.
[6] abbreviates: male, C57BL/6J, iv, I.V. 1 mg/kg, plasma.
[7] abbreviates: male, C57BL/6J, po, P.O. 10 mg/kg, brain.
Setting [8] is: male, C57BL/6J, po, P.O. 10 mg/kg, plasma.
The mark [9] stands for this setting: male, C57BL/6J, ip, I.P. 2.5 mg/kg, brain.
Setting [10] is: male, C57BL/6J, ip, I.P. 2.5 mg/kg, plasma.

SMILES strings stand for the structures. Like-named read-outs stand apart in the source and are kept apart here.

T1 sequence (P35462 whole entry): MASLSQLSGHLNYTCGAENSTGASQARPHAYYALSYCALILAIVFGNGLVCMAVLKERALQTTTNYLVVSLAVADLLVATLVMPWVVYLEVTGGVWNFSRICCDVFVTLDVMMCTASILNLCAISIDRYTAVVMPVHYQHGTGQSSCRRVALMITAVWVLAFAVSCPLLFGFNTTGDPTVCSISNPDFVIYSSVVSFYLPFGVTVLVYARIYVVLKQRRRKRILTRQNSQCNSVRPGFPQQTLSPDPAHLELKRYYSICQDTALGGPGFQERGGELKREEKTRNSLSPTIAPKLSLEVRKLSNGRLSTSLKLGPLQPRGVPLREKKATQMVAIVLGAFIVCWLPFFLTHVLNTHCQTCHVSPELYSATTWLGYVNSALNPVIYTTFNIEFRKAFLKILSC

`O=C(O)COCCN1CCN(C2=Nc3ccccc3Oc3ccc(Cl)cc32)CC1` [Compound 6]: the chloroquine-induced scratching behavior result in the series with mice (15 mg kg−1 p.o.) is on record as “profound antipruritic effect”; with mice (3, 10, or 30 mg kg−1 i.p. 15 min prior to s.c. chloroquine, scratching bouts over 30 min), “ameliorated scratching behavior in a dose‐dependent manner”. For the same compound, in series [1], the metabolic stability result is on record as “highest metabolic stabilities”. Besides, the “fold lower affinity against D3 as compared to loxapine” value at human D3 receptor was “≈ 31 fold”. Further, at human D3 receptor, the inhibitory constant (Ki) worked out at 3.52 µM. Also, the chloroquine-induced scratching result in the series on Slack−/− mice (Slack−/− mice, i.p.) is “did not significantly alter”. Besides, the total exposure AUC(0-inf) in series [2] (setting [3]) was 6780 ng·h/mL; in series [2] (setting [4]), 5600 ng·h/mL; in series [2] (setting [5]) it was 520 ng·h/mL; in series [2] (setting [6]) it was 473 ng·h/mL; in series [2] (setting [7]), 3750 ng·h/mL; in series [2] (setting [8]), 4070 ng·h/mL. Also, the peak concentration (Cmax) stood at 5490 ng/mL in series [2] (setting [3]); 6280 ng/mL in series [2] (setting [4]); 493 ng/mL in series [2] (setting [5]); 562 ng/mL in series [2] (setting [6]); 2460 ng/mL in series [2] (setting [7]); 3140 ng/mL in series [2] (setting [8]). Moreover, the Tmax in series [2] (setting [3]), in series [2] (setting [4]), in series [2] (setting [5]), in series [2] (setting [7]) and in series [2] (setting [8]) was 15 min throughout. Also, the half-life was 39.7 min in series [2] (male, C57BL/6J, ip, I.P. 10 mg/kg, brain, read-out: t1/2); 35 min in series [2] (male, C57BL/6J, ip, I.P. 10 mg/kg, plasma, read-out: t1/2); 62.1 min in series [2] (male, C57BL/6J, iv, I.V. 1 mg/kg, brain, read-out: t1/2); 52.5 min in series [2] (male, C57BL/6J, iv, I.V. 1 mg/kg, plasma, read-out: t1/2); about 35 min in series [2] (male, C57BL/6J, plasma and brain, ip, 10 mg kg−1 i.p., first-order kinetics, read-out: half-life in the plasma and brain); 71.9 min in series [2] (male, C57BL/6J, po, P.O. 10 mg/kg, brain, read-out: t1/2). The half-life in series [2] (male, C57BL/6J, po, P.O. 10 mg/kg, plasma, read-out: t1/2) is 67.4 min. Besides, the “blood–brain barrier crossing” value in series [2] (10 mg kg−1 i.p.) is given as “readily crossed the blood–brain barrier”.
Turning to `CN1CCN(C2=Nc3ccccc3Oc3ccc(Cl)cc32)CC1` [Loxapine, reference compound], the chloroquine-induced scratching behavior result in the series with mice (wildtype mice, systemic low dose, preliminary experiments) is recorded as “considerably alleviated”; with Slack−/− mice (Slack knockout mice, systemic low dose, preliminary experiments), “did not affect”. Moreover, in series [1], the metabolic stability entry is “metabolized rapidly”. Further, in series [1] (10 µM, after 15 min), the drug remaining unmodified turned out to be 6%. Besides, the affinity on human D3 receptor, expressed as Ki, was 0.112 µM. In series [2] (male, C57BL/6J, brain and plasma, ip, 2.5 mg kg−1 i.p., from AUC0-inf, read-out: ratio brain/plasma), the Kp was 5.12. Further, the values for the area under the curve AUC(0-inf) in series [2] (setting [9]) and in series [2] (setting [10]) were 913 ng·h/mL and 178 ng·h/mL, respectively. In addition, the highest concentration (Cmax) came to 493 ng/mL in series [2] (setting [9]) and 143 ng/mL in series [2] (setting [10]). For the same compound, the Tmax in series [2] (setting [9]) and in series [2] (setting [10]) was 15 min in each case. Besides, the half-life came out at 82.2 min in series [2] (male, C57BL/6J, ip, I.P. 2.5 mg/kg, brain, read-out: t1/2) and 61.9 min in series [2] (male, C57BL/6J, ip, I.P. 2.5 mg/kg, plasma, read-out: t1/2).
